Measurements as given in BindingDB's records for doi:10.1016/j.bmcl.2007.04.009 (Bristol-Myers Squibb, 2007).

These compounds were tested against T1, Fatty-acid amide hydrolase 1 (Homo sapiens, UniProt O00519) (assay: FAAH Inhibition Assay). Settings: pH 9; 22 °C.
T1 sequence (O00519 whole entry): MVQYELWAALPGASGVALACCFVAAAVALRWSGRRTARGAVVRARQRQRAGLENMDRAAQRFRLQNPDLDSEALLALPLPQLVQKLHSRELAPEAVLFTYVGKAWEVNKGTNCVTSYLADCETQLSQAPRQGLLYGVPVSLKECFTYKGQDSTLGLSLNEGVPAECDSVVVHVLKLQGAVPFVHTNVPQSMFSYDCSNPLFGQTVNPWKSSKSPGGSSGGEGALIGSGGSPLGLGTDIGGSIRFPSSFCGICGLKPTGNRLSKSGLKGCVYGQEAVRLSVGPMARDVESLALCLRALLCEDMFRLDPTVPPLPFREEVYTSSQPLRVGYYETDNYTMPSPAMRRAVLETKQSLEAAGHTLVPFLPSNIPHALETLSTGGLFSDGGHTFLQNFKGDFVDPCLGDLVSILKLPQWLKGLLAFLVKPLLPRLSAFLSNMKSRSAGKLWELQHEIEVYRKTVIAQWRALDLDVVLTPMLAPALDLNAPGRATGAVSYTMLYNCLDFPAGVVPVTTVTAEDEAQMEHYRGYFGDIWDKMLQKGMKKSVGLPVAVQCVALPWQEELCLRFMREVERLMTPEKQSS
Procedure: FAAH Inhibition Assay [3H]Ethanolamine produced from [3H]AEA hydrolysis was used to calculate FAAH activity and was measured by scintillation counting of the aqueous phase after extraction of the incubation mixture. Data were expressed as the percentage of [3H]-ethanolamine formed versus vehicle, after subtraction of the background radioactivity determined in the presence of arachidonyl trifluoromethyl ketone (ATFMK), an inhibitor of FAAH. IC50 values were determined using a four-parameter logistic equation for dose-response curves.

**Q.** Which IC50 does the source give for CCOC(=O)C(C)CCCCCn1c(C)nc(-c2ccccc2)c1-c1ccccc1 (racemic) [D, L mixtures] here?
**A.** Its IC50 is 130 nM.

**Q.** With CCOC(=O)C(CCCCCn1c(C)nc(-c2ccccc2)c1-c1ccccc1)C(C)C (racemic) [D, L mixtures] as the compound, how does the IC50 read?
**A.** The IC50 was greater than 100000 nM.

**Q.** How did the IC50 turn out when CCOC(=O)C(CC)CCCCCn1c(C)nc(-c2ccccc2)c1-c1ccccc1 (centres undefined) [D, L mixtures] was run?
**A.** The IC50 was 9900 nM.

**Q.** CCOC(=O)CCCCCCCn1c(CC)nc(-c2ccccc2)c1-c1ccccc1 [ethyl 8-(2-ethyl-4,5-diphenyl-1H-imidazol-1-yl)octanoate] was tested. Which IC50 did it give?
**A.** Its IC50 is 31 nM.
